Laboratory results from patent USRE31731E, “Herbicidal 4-trifluoromethyl-4-nitrodiphenyl ethers” (priority 1978, dated 1984).

Key:
Assay type in all cases: in vivo
[1] = system: peanuts; test: Crop tolerance, peanuts; conditions: 50% or less kill of crop at rates giving more than 50% kill of weeds
Method: (§1) The following test procedure is employed. Seeds of selected crops and weeds are planted in soil in flats. For preemergence tests, the flats are treated with the test compound immediately after the planting. For postemergence tests, the seeds are allowed to germinate, and after 2 weeks the flats are treated with the test compound. The compound to be evaluated is dissolved in acetone, diluted with water, and sprayed over the flats using a carrier volume equivalent to 50 gallons per acre at the rate of application (pounds per acre, lb/A.) specified in the tables. About 2 weeks after the application of the test compound, the state of growth of the plants is observed and the phytotoxic effect of the compound is evaluated. Table II gives the average percent control achieved by the test compounds in terms of the percent of the plants which are killed by the compounds.
(§2) Following the general test procedure of Example 73, diphenyl ethers are evaluated for significant tolerance (as shown by 50% or less kill of the test crop at levels of application which give more than 50% kill of many or all of the weeds of Example 73) towards some or all of the following common agronomic crops (not all compounds tested against all crops): alfalfa, snapbeans, corn, cotton, cucumbers, peanuts, rape, rice, safflower, soybeans, tomatoes, and wheat.

[2] = system: Monocots; test: Herbicidal activity, preemergence, monocot weeds (Table II); conditions: pre-emergence, 336 h, about 2 weeks, read-out: % control (percent of plants killed); for pest or weed control at 2241.7 g/ha: 2 lb./A.; for pest or weed control at 4483.4 g/ha: 4 lb./A.
Method: (§3) Using the procedure described below, diphenyl ethers were evaluated for control of the following weeds: […]
(§4) barnyardgrass (Echinochloa crusgalli) crabgrass (Digitaria spp.) nutsedge (Cyperus esculentus)
(§5) At 2 and 4 pounds per acre:
(§6) **Bermudagrass (Cynodon dactylon)
(§7) *downy brome (Bromus tectorum) foxtail (Setaria faberii)
(§8) Johnsongrass (Sorghum halepense) […]
(§9) quackgrass (Agropyron repens)
(§10) *ryegrass (Lolium perenne)
(§11) *yellow millet (Panicum miliaceum)
as §1

[3] = system: rice; test: Crop tolerance, rice; conditions: 50% or less kill of crop at rates giving more than 50% kill of weeds
Method: as §1, §2

[4] = system: Monocots; test: Herbicidal activity, postemergence, monocot weeds (Table II); conditions: post-emergence, 336 h, about 2 weeks, read-out: % control (percent of plants killed); for pest or weed control at 2241.7 g/ha: 2 lb./A.; for pest or weed control at 4483.4 g/ha: 4 lb./A.
Method: as §3, §4, §5, §6, §7, §8, §9, §10, §11, §1

[5] = system: soybeans; test: Crop tolerance, soybeans; conditions: preemergence; 50% or less kill of crop at rates giving more than 50% kill of weeds
Method: as §1, §2

[6] = system: Dicots; test: Herbicidal activity, postemergence, dicot weeds (Table II); conditions: post-emergence, 336 h, about 2 weeks, read-out: % control (percent of plants killed); for pest or weed control at 2241.7 g/ha: 2 lb./A.; for pest or weed control at 4483.4 g/ha: 4 lb./A.
Method: as §3
(§12) bindweed (Convolvulus arvensis) curly dock (Remex crispus) velvetleaf (Abutilon theophrasti) wild mustard (Brassica haber)
(§13) At 2 and 4 pounds per acre: […]
(§14) cocklebur (Xanthium pensylvanicum)
(§15) **coffeeweed (Sesbania macrocarpa)
(§16) *curly dock (Rumex crispus)
(§17) *lambsquarters (Chenopodium album) morningglory (Ipomoea purpurea)
(§18) *pigweed (Amaranthus retroflexus)
(§19) **ragweed (Ambrosia artemisiifolia)
(§20) *smartweed (Polygonum pensylvanicum)
(§21) **tomato (Lycopersicon esculentum)
(§22) *wild carrot (Daucus carota)
(§23) *wild mustard (Brassica haber)
as §1

[7] = system: corn; test: Crop tolerance, corn; conditions: 50% or less kill of crop at rates giving more than 50% kill of weeds
Method: as §1, §2

[8] = system: Dicots; test: Herbicidal activity, preemergence, dicot weeds (Table II); conditions: pre-emergence, 336 h, about 2 weeks, read-out: % control (percent of plants killed); for pest or weed control at 2241.7 g/ha: 2 lb./A.; for pest or weed control at 4483.4 g/ha: 4 lb./A.
Method: as §3, §12, §13, §14, §15, §16, §17, §18, §19, §20, §21, §22, §23, §1

[9] = system: wheat; test: Crop tolerance, wheat; conditions: preemergence; 50% or less kill of crop at rates giving more than 50% kill of weeds
Method: as §1, §2

[10] = postemergence or on transplanted rice

Row | SMILES | Tolerance to peanuts ([1]; postemergence) | Tolerance to peanuts ([1]; preemergence) | pest or weed control at 2241.7 g/ha [2] [%] | pest or weed control at 4483.4 g/ha [2] [%] | Tolerance to rice [3, 10] | pest or weed control at 2241.7 g/ha [4] [%] | pest or weed control at 4483.4 g/ha [4] [%] | Tolerance to soybeans [5] | pest or weed control at 2241.7 g/ha [6] [%] | pest or weed control at 4483.4 g/ha [6] [%] | Tolerance to corn ([7]; postemergence) | pest or weed control at 2241.7 g/ha [8] [%] | pest or weed control at 4483.4 g/ha [8] [%] | Tolerance to corn ([7]; preemergence) | Tolerance to rice ([3]; preemergence) | Tolerance to wheat [9]
1 | CC(Oc1cc(Oc2ccc(C(F)(F)F)cc2Cl)ccc1[N+](=O)[O-])C(=O)N(C)C (centres unmarked) [Example 53] | Tolerance | Tolerance | 98 | 98 | Tolerance | 81 | 79 | Tolerance | 100 | 100 | Tolerance | 100 | 83 | – | – | –
2 | O=[N+]([O-])c1ccc(Oc2ccc(C(F)(F)F)cc2Cl)cc1OCC(F)(F)F [Example 11] | – | – | 88 | 81 | Tolerance | 100 | 82 | Tolerance | 100 | 99 | – | 99 | 98 | Tolerance | – | –
3 | CSCCOc1cc(Oc2ccc(C(F)(F)F)cc2Cl)ccc1[N+](=O)[O-] [Example 40] | Tolerance | Tolerance | 88 | 86 | Tolerance | 81 | 64 | Tolerance | 100 | 100 | Tolerance | 98 | 92 | Tolerance | Tolerance | Tolerance
4 | CCNc1cc(Oc2ccc(C(F)(F)F)cc2Cl)ccc1[N+](=O)[O-] [Example 19, 2-Chloro-α,α,α-trifluoro-p-tolyl-3-ethylamino-4-nitrophenyl ether] | – | Tolerance | 77 | 91 | – | 94 | 84 | Tolerance | 97 | 98 | Tolerance | 91 | 96 | Tolerance | Tolerance | Tolerance
5 | COC(=O)c1cc(Oc2ccc(C(F)(F)F)cc2Cl)ccc1[N+](=O)[O-] [Example 49, 2-chloro-α,α,α-trifluoro-p-tolyl-3-carbomethoxy-4-nitrophenyl ether] | – | Tolerance | 100 | 92 | – | 77 | 86 | Tolerance | 100 | 100 | Tolerance | 100 | 95 | – | – | –
6 | CN(C)c1cc(Oc2ccc(C(F)(F)F)cc2Cl)ccc1[N+](=O)[O-] [Example 20, 2-chloro-α,α,α-trifluoro-p-tolyl-3-dimethylamino-4-nitrophenyl ether] | – | – | 80 | 88 | Tolerance | 80 | 78 | – | 97 | 88 | – | 93 | 99 | – | – | –
